Results from patent US20240024273A1, “TOPICAL ADMINISTRATION OF 2-(DIETHYLAMINO)ETHYL 2-(4-ISOBUTYLPHENYL)PROPRIONATE FOR TREATMENT OF DISEASES” (TECHFIELDS PHARMA CO., LTD., priority 2020, published 2024).

How the values were obtained:
Type in all cases: in vivo, human
[1] = system: osteoarthritis of the knee; assay: Second Phase 2 study: WOMAC difficulty performing daily activities (functional ability) subscale score
Description: This is a Phase 2, multicenter, randomized, double blind (within dose), Ibuprofen-placebo controlled, parallel group, dose range finding study to evaluate the efficacy, safety, and PK of 2-(diethylamino)ethyl 2-(4-isobutylphenyl)propionate spray in adult subjects with clinically symptomatic OA of the knee. For subjects with bilateral knee pain, both knees will be treated, but the most symptomatic knee (ie, the most painful knee as measured by the Western Ontario and McMaster University Osteoarthritis Index [WOMAC® 3.1] pain subscale score at Screening) will be designated as the target knee for efficacy analyses. For subjects with unilateral knee pain, only the symptomatic (target) knee will be treated.
The VAS version of the WOMAC will be used for the Primary and Secondary Efficacy Endpoints. Efficacy endpoints will be assessed at Screening and Baseline (Day 1) and at the Week 2, Week 4, Week 8, and Week 12/EOS visits.
(§1) 4.9.2. Secondary Efficacy Endpoints: • 1. Change from Baseline in the WOMAC (VAS) pain subscale score for the target knee at 2, 8, and 12 weeks of treatment; • 2. Change from Baseline in the WOMAC (VAS) stiffness subscale scores for the target knee and WOMAC (VAS) functional ability subscale scores at 2, 4, 8, and 12 weeks of treatment; • 3. Change from Baseline in the overall WOMAC (VAS) score at 2, 4, 8, and 12 weeks of treatment; • 4. Subject's global assessment of disease status of the target knee at 2, 4, 8, and 12 weeks of treatment; • 5. Subject's global assessment of response to therapy of the target knee at 2, 4, 8, and 12 weeks of treatment; • 6. Amount of rescue medication (acetaminophen) consumed per day for target knee pain.
The Secondary Efficacy Endpoints, change from Baseline in the WOMAC subscale scores for pain, stiffness, and functional ability, and overall WOMAC score at 2, 4, 8, and 12 weeks of treatment, will be analyzed using the same methods as for the Primary Efficacy Endpoint.

[2] = system: osteoarthritis of the knee; assay: Second Phase 2 study: Subject's pain Assessment Scores (SPA)
Procedure: Subjects will record the following information in a Daily Diary starting at Screening: the amount of knee pain in the target knee while walking during the preceding 24 hours (using a 100 mm visual analog scale [VAS]), the times and number of sprays for each administration of study medication, the times when the subject washes his/her knees and/or takes a shower, the number of tablets of rescue medication taken that day and the times taken, the reason for taking the rescue medication (e.g., knee pain, headache, low back pain), any other concomitant medications taken that day, and any AEs occurring that day.

[3] = system: osteoarthritis of the knee; assay: Second Phase 2 study: Subject Global Impression of Change (SGIC); settings: Week 12
Description: as §1

[4] = system: osteoarthritis of the knee; assay: Second Phase 2 study: Investigator's global assessment of disease status (IGADS); settings: Week 12
[5] = Baseline, oral, 3 × 400 mg (n = 20), first 130 subjects
[6] = Week 12, oral, 3 × 400 mg (n = 20), first 130 subjects
[7] = all subjects, Oral Ibuprofen 3 × 400 mg, n = 48, Week 12
[8] = all subjects, Oral Ibuprofen 3 × 400 mg, n = 48 vs. Placebo n = 48
[9] = oral 3×400 mg, first 130 subjects
[10] = oral, 3 x 400 mg (n = 20), first 130 subjects
[11] = all subjects, Oral Ibuprofen 3 × 400 mg, n = 48

## CC(C)Cc1ccc(C(C)C(=O)O)cc1 (stereo not drawn) [Ibuprofen, 2-(4-isobutylphenyl)propionic acid, reference compound]
[1]; [5]
  WOMAC Difficulty Performing Daily Activities Subscale Scores, Baseline (LS Mean): 65.5 mm
[1]; [6]
  WOMAC Difficulty Performing Daily Activities Subscale Scores, % of improvement from Placebo: −3.3%
  WOMAC Difficulty Performing Daily Activities Subscale Scores, % of improvement from baseline: −33.0%
  WOMAC Difficulty Performing Daily Activities Subscale Scores, Changes from Baseline (LS Mean): −21.6 mm
  WOMAC Difficulty Performing Daily Activities Subscale Scores, Different from placebo (LS Mean): −3.5 mm
  WOMAC Difficulty Performing Daily Activities Subscale Scores, Week 12 (LS Mean): 43.9 mm
[1]; [7]
  WOMAC Difficulty Performing Daily Activities Subscale Scores, % of improvement from Placebo: −4.3%
  WOMAC Difficulty Performing Daily Activities Subscale Scores, % of improvement from baseline: −41.5%
  WOMAC Difficulty Performing Daily Activities Subscale Scores, Changes from Baseline (LS Mean): −25.3 mm
  WOMAC Difficulty Performing Daily Activities Subscale Scores, Week 12 (LS Mean): 35.7 mm
[1]; [8]
  WOMAC Functional Ability, difference vs. Placebo: −3.4 mm
[1]; [9]
  WOMAC functional ability, difference from placebo: −3.5 mm
[2]; [5]
  Subject’s pain Assessment Scores, Baseline (LS Mean): 71.2 mm
[2]; [6]
  Subject’s pain Assessment Scores, % of improvement from baseline: −36.2%
  Subject’s pain Assessment Scores, % of improvement from placebo: −7.0%
  Subject’s pain Assessment Scores, Changes from Baseline (LS Mean): −25.8 mm
  Subject’s pain Assessment Scores, Different from placebo (LS Mean): −6.9 mm
  Subject’s pain Assessment Scores, Week 12 (LS Mean): 45.4 mm
[2]; [7]
  Subject's pain Assessment Scores, % of improvement from Placebo: −8.4%
  Subject's pain Assessment Scores, % of improvement from baseline: −45.4%
  Subject's pain Assessment Scores, Changes from Baseline (LS Mean): −30.5 mm
  Subject's pain Assessment Scores, Week 12 (LS Mean): 36.6 mm
[2]; [8]
  SPA, difference vs. Placebo: −6.4 mm
[2]; [9]
  SPA, difference from placebo: 6.1 mm
[3]; [10]
  SGIC: Good and Very good: 55.0%
  SGIC: Poor and Very Poor: 10.0%
  SGIC: fair: 35.0%
[3]; [11]
  SGIC, Good and Very good: 47.9%
  SGIC, Poor and Very Poor: 8.3%
  SGIC, fair: 43.8%
[3]; oral 3×400 mg/day, first 130 subjects
  Subject's satisfaction rate (SGIC good and very good): 55%
[4]; [10]
  IGADS: Good and Very good: 40.0%
  IGADS: Poor and Very Poor: 15.0%
  IGADS: fair: 45.0%
[4]; [11]
  IGADS, Good and Very good: 39.6%
  IGADS, Poor and Very Poor: 4.1%
